In PMC8228075, “In Vitro and In Silico Characterization of G-Protein Coupled Receptor (GPCR) Targets of Phlorofucofuroeckol-A and Dieckol” (Marine Drugs, 2021):
“And” between values parts separate entries of the source, which are not always exact repeats. Identical values can stand only once. Like-named read-outs stand apart in the source and are kept apart here. Marks after values point to notes of the source that are not given here.

Columns and labels:
[1] = target: T1, Glucagon-like peptide-1 receptor (GLP-1) (Mus musculus, UniProt O35659); assay: GLP-1R functional antagonist assay (cAMP, HTRF, βTC6 cells); format: cell-based; settings: for Antagonist Effect: % inhibition of control response to 0.3 nM GLP-1(7–37); for IC50: antagonist effect, mean ± SD, n = 3; for inhibition at 12.5 µM / inhibition at 25 µM / inhibition at 100 µM: read-out: Antagonist Effect
T1 construct: mouse GLP-1 receptor-expressed βTC6 cells; host or cells: βTC6 cells
T1 sequence (O35659 22-463): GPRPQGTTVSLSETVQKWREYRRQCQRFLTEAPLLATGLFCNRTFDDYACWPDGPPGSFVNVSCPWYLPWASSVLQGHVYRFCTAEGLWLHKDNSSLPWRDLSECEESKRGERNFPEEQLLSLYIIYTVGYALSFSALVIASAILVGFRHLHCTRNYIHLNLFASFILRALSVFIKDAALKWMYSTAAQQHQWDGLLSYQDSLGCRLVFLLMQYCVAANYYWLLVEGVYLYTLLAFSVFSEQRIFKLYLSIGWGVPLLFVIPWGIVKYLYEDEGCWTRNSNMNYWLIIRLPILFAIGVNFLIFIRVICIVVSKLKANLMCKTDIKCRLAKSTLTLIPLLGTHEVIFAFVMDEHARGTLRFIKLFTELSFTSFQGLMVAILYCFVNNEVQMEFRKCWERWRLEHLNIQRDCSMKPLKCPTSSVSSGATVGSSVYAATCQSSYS
Experimental: (§1) The in-house assay protocol and experimental conditions are reported in our previous reports. The functional effect of dieckol and PFF-A was characterized based on their modulation effect on cytosolic Ca^2+ ion mobilization using a fluorimetric detection method or by measuring their effect on cAMP modulation using homogeneous time-resolved fluorescence (HTRF) detection.
Functional activity of phlorotannins over hA2AR, hα2CAR, hCB1R, GLP-1R, and h5-HT1BR was determined by measuring their effects on cAMP production by the HTRF detection method using transected cells expressing human cloned receptors.
The HBSS buffer (Invitrogen) complemented with 20 mM HEPES (pH 7.4) and 500 µM IBMX was used to suspend and distribute the βTC6 cells at a density of 1.5x10^4 cells/well. The plate was then incubated for 10 min at RT in the presence of HBSS (basal and stimulated control), the test compound, or the reference agonist and antagonist. […] Following incubation, the cells were lysed and the fluorescence acceptor (D2-labeled cAMP) and fluorescence donor (anti-cAMP antibody labeled with europium cryptate) were added.

[2] = target: T2, Alpha-2A adrenergic receptor (hα2AAR) (Homo sapiens, UniProt P08913); assay: hα2AAR functional antagonist assay (Ca2+ mobilization, rat basophil leukemia cells); format: cell-based; settings: read-out: Antagonist Effect
T2 construct: host or cells: rat basophil leukemia cells
T2 sequence (P08913 1-465): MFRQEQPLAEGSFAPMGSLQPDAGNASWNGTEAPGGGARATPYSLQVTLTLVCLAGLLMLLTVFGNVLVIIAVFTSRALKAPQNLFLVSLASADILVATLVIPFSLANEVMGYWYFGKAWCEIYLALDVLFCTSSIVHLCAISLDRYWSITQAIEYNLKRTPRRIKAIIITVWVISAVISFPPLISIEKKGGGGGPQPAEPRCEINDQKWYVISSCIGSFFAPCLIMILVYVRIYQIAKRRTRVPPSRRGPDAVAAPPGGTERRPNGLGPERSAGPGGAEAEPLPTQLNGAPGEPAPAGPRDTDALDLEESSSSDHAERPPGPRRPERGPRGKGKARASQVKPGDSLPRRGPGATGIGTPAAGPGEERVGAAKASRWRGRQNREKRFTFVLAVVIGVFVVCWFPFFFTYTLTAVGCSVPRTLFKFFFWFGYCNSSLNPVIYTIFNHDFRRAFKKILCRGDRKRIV
Source text: as §1
The rat basophil leukemia cells were distributed in microplates at a density of 1.1 × 10^4 cells/well after suspending in a HBSS buffer (Invitrogen) containing 20 mM HEPES. Then, the fluorescent probe (Fluo8, AAT Bioquest) mixed with probenecid in HBSS buffer (Invitrogen) complemented with 20 mM Hepes (Millipore) (pH 7.4) was added into each well incubated for 60 min at 30 °C. Thereafter, the assay plates were positioned in a microplate reader (FlipR Tetra, Molecular Device) and we added test compounds, reference agonist/antagonist or HBSS buffer (basal control). Change in fluorescence intensity which varies proportionally to the free cytosolic Ca^2+ ion concentration was measured.

[3] = target: T3, Vasopressin 1A receptor (hV1AR) (Homo sapiens, UniProt P37288); assay: hV1AR functional agonist assay (Ca2+ mobilization, CHO-V1AR cells); format: cell-based; settings: for Agonist Effect: % of control response to 1 µM AVP
T3 construct: host or cells: CHO-V1AR cells
Source text: as §1
Then, fluorescent probe (Fluo4, Invitrogen) mixed with probenecid in HBSS buffer (Invitrogen, Carlsbad, CA, USA) supplemented with 20 mM HEPES, pH 7.4 (Invitrogen) was added to each well, allowing to equilibrate with the cells for 60 min at 37 °C, then 15 min at 22 °C.

[4] = target: T4, Free fatty acid receptor 1 (FFA1R) (GPR40) (Homo sapiens, UniProt O14842); assay: FFA1R/GPR40 functional agonist assay (Ca2+ mobilization, HEK-293 cells); format: cell-based; settings: 100 µM; % of control response to 100 µM linoleic acid
T4 construct: host or cells: HEK-293 cells
Experimental: The in-house assay protocol and experimental conditions are reported in our previous reports. […] Then, the mixture of fluorescent probe (Fluo4 Direct, Invitrogen) and probenecid in HBSS buffer (Invitrogen) complemented with 20 mM Hepes (Invitrogen) (pH 7.4) was added into each well and incubated for 60 min at 37 °C, followed by 15 min incubation at 22 °C. Thereafter, the assay plates were positioned in a CellLux microplate reader (PerkinElmer, Waltham, MA, USA) which was used for the addition of the following: For agonist assay-test compound, reference agonist, or HBSS buffer (basal control). Linoleic acid at 100 μM was added in separate assay wells for stimulated control measurement.

[5] = target: T3, Vasopressin 1A receptor (hV1AR); set-up: method as in PMID 31238535; settings: 100 µM, % of control response to 1 µM AVP, value extracted from previous study ref 22, cited from earlier work

T3 sequence (P37288 whole entry): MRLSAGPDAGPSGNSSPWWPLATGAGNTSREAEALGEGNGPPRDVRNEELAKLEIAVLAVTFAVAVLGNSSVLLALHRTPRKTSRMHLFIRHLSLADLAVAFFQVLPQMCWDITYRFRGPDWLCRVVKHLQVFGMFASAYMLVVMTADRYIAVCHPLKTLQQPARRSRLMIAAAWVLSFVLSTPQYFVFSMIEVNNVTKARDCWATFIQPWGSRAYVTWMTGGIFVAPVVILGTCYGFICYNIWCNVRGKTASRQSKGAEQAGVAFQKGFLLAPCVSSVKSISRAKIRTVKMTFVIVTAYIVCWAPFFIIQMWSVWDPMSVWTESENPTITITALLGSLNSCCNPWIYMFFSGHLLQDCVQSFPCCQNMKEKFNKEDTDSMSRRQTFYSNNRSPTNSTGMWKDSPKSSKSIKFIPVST
T4 sequence (O14842 whole entry): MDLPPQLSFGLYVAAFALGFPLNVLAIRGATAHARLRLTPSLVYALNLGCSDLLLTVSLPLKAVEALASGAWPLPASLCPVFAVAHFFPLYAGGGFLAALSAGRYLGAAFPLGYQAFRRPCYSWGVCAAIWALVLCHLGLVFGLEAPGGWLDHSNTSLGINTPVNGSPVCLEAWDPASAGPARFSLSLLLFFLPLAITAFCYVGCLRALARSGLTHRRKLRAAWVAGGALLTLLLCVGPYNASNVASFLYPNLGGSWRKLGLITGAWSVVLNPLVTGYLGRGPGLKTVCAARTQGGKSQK

Row | Structure (SMILES) | Antagonist Effect ([1]; 25 µM) | Antagonist Effect ([1]; 50 µM) | Antagonist Effect ([1]; 100 µM) | IC50 [1] | inhibition at 12.5 µM [1] | inhibition at 25 µM [1] | inhibition at 100 µM [1] | inhibition at 100 µM [2] | Agonist Effect ([3]; 50 µM) | Agonist Effect ([3]; 100 µM) | Agonist Effect ([3]; 150 µM) | EC50 ([3]; agonist effect, mean ± SD, n = 3) | Agonist Effect [4] | potency relative to dieckol ([1]; from IC50 values, GLP-1R antagonist effect) | Agonist Effect [5] | Agonist Effect ([5]; listed as Phlorofucofuroeckol-A)
1 | Oc1cc(O)cc(Oc2c(O)cc(O)c3c2Oc2c(O)cc(Oc4c(O)cc(Oc5c(O)cc(O)c6c5Oc5c(O)cc(O)cc5O6)cc4O)cc2O3)c1 [Dieckol, dieckol] | 21.23 ± 7.31% | 53.80 ± 3.12% | 101.0 ± 8.20% | 47.2 ± 2.46 µM | 17.9 ± 6.32% | 21.2% | 101 ± 8.2% | 46.1 ± 20.1% | 50.40 ± 0.42% | 106.73 ± 2.97% | 118.1 ± 2.83% | 39.1 ± 2.12 µM | 0.2 ± 1.56% |  |  | 
2 | Oc1cc(O)cc(Oc2c(O)cc(O)c3c2Oc2c(O)cc4oc5c(Oc6cc(O)cc(O)c6)c(O)cc(O)c5c4c2O3)c1 [PFF-A, phlorofucofuroeckol-A] | 57.37 ± 1.15% | 83.87 ± 2.03% |  | 21.6 ± 2.16 µM | 25.6 ± 13.1% | 57.4% | 106 ± 1.27% | 20.9 ± 1.77% |  |  |  |  | −1.0 ± 0.07% | two-fold higher | 38.45 ± 7.14% and 38.45 ± 7.14 ^c % | 38.45 ± 7.14 ^a %
